Values after ≈ are worked out from the molar mass of the structure shown.
How the values were obtained:
[1] = test system: Salmonella Albany; assay: MIC and MBC dose-response, serotype Albany; format: cell-based, Salmonella enterica; settings: MIC identical to MBC
Description: (§1) An overnight Salmonella suspension was normalized at 0.05 OD600 (approximately 3.5×10^7 CFU/ml) with an adjusted M9 minimal broth medium (12.7 mM Na2HPO4 7H2O; 22 mM KH2PO4; 18.7 mM NH4Cl; 2 mM MgSO4; 0.1 mM CaCl2; 0.4% glucose; 0.05% casamino acids). 100 μL of the suspension plus 2 μl of SMs (200 μM) were transferred into each well of a sterile, non-treated, flat bottom 96-well plate. Bacteria alone (negative control, NC), 2% DMSO plus bacteria (DMSO control), 20 μg/ml chloramphenicol or 50 μg/ml kanamycin plus bacteria (positive controls, PC), and M9 medium only were used as control. Plates were incubated in a Sunrise™ Tecan kinetic microplate reader for 12 hrs at 37° C. and the optical density (OD) was measure at 600 nm as described above. Percentage of inhibition=(OD600 SM−OD600 NC)/(OD600 NC)×100. […] Cultures from wells showing no turbidimetric increase were transferred onto a XLT4 agar plate. Plates were incubated at 37° C. for 36 hrs.
(§2) Screens were performed as described in the primary screen. The lowest SM concentration with a static effect was considered as the minimal inhibitory concentration (MIC) and the lowest SM concentration with a cidal effect was considered as the minimal bactericidal concentration (MBC).

[2] = test system: S. typhimurium WT; assay: MIC and MBC dose-response, serotype Typhimurium; format: cell-based, Salmonella enterica subsp. enterica serovar Typhimurium LT2; settings: Salmonella serotype Typhimurium; MIC identical to MBC
Description: as §1, §2

[3] = test system: S. typhimurium WT; assay: High-throughput primary screen for S. typhimurium growth inhibitors at 200 μM; format: cell-based, Salmonella enterica subsp. enterica serovar Typhimurium LT2; settings: adjusted M9 minimal broth, 12 hrs, 37° C., bactericidal = 100% growth inhibition and no growth on XLT4 agar, bacteriostatic = 100% growth inhibition but growth on XLT4 agar
Description: Identification of S. typhimurium growth inhibitors: The 4182 small molecules (SMs) were screened at 200 μM against S. typhimurium WT using HTS assay in a 96-well plate format. An overnight Salmonella suspension was normalized at 0.05 OD600 (approximately 3.5×10^7 CFU/ml) with an adjusted M9 minimal broth medium (12.7 mM Na2HPO4 7H2O; 22 mM KH2PO4; 18.7 mM NH4Cl; 2 mM MgSO4; 0.1 mM CaCl2; 0.4% glucose; 0.05% casamino acids). 100 μL of the suspension plus 2 μl of SMs (200 μM) were transferred into each well of a sterile, non-treated, flat bottom 96-well plate. Bacteria alone (negative control, NC), 2% DMSO plus bacteria (DMSO control), 20 μg/ml chloramphenicol or 50 μg/ml kanamycin plus bacteria (positive controls, PC), and M9 medium only were used as control. Plates were incubated in a Sunrise™ Tecan kinetic microplate reader for 12 hrs at 37° C. and the optical density (OD) was measure at 600 nm as described above. Percentage of inhibition=[…]. SMs were identified as growth inhibitors if their inhibition value after incubation was above 20% (value representing the inhibition level monitored with the DMSO controls). Cultures from wells showing no turbidimetric increase were transferred onto a XLT4 agar plate. Plates were incubated at 37° C. for 36 hrs.

[4] = test system: Salmonella Newport; assay: MIC and MBC dose-response, serotype Newport; format: cell-based, Salmonella enterica; settings: MIC identical to MBC
Description: as §1, §2

[5] = test system: Salmonella Enteritidis; assay: MIC and MBC dose-response, serotype Enteritidis; format: cell-based, Salmonella enterica; settings: MIC identical to MBC
Description: as §1, §2

[6] = test system: Salmonella Saint-Paul; assay: MIC and MBC dose-response, serotype Saint-Paul; format: cell-based; settings: MIC identical to MBC
Description: as §1, §2

[7] = test system: Salmonella Braenderup; assay: MIC and MBC dose-response, serotype Braenderup; format: cell-based, Salmonella enterica; settings: MIC identical to MBC
[8] = test system: Salmonella Heidelberg; assay: MIC and MBC dose-response, serotype Heidelberg; format: cell-based, Salmonella enterica; settings: MIC identical to MBC
Description: as §1, §2

[9] = test system: Salmonella Anatum; assay: MIC and MBC dose-response, serotype Anatum; format: cell-based, Salmonella enterica; settings: MIC identical to MBC
Description: as §1, §2

[10] = test system: Salmonella Javiana; assay: MIC and MBC dose-response, serotype Javiana; format: cell-based, Salmonella enterica; settings: MIC identical to MBC
Description: as §1, §2

[11] = test system: S. typhimurium WT; assay: Antimicrobial resistance studies (single step and sequential passage); format: cell-based, Salmonella enterica subsp. enterica serovar Typhimurium LT2
Description: Antimicrobial resistance studies: Single step and sequential passage resistance assays were performed as described (9). The MIC of the selected five SMs against S. typhimurium WT was used as reference for lethal (2×MIC) and sub-lethal (0.75×MIC) doses.
The medium was allowed to solidify overnight in the dark at room temperature. The next day, 100 μl of S. typhimurium bacteria (approximately 10^9 CFU) was transferred onto the adjusted M9 agar containing 2×MIC of SMs. S. typhimurium WT growth in 2% DMSO, 20 μg/ml chloramphenicol, or 50 μg/ml kanamycin, and adjusted M9 medium only were used as controls. The plate was sealed with parafilm and incubated for 15 days in the dark at 37° C. After 15 days, 100 μl of LB broth was added to the wells of 24-well plate showing no colonies in order to resuspend the potential surviving bacteria and transferred into a 5 ml tube.
The plate was incubated in the dark at 37° C., 175 rpm for 12 hrs. After this first passage, the plate was centrifuged for seven min at 4500 rpm. Supernatant was replaced with a fresh adjusted M9 broth media amended with 0.75×MIC of the corresponding SM. This procedure was repeated fourteen times. Following the 15th passage, a dose-response assay was performed on the remaining alive S. typhimurium bacteria as describe previously.

[12] = test system: Kan^R S. typhimurium; assay: Preventive efficacy in S. typhimurium-infected G. mellonella larvae; format: in vivo, Galleria mellonella; settings: 72 HPI; pretreated with 12.5 μg per larva 2 hrs before infection
Description: FIGS. 4(A-B). Preventive antimicrobial efficacy of SM treatment in S. typhimurium-infected G. mellonella. Larva were first treated with 12.5 μg SMs per larva (50 mg/kg), incubated for 2 hrs at 37° C. in the dark, then infected with 10^4 CFU per larva, and further incubated at 37° C. in the dark for 72 hrs. FIG. 4A: G. mellonella larva survival rate. Survival rate was monitored every 12 hours for 72 hrs. Infected larva treated with chloramphenicol control (CK) had 100% survival. FIG. 4B: Bacterial quantification of Salmonella inside larvae following death of larva or, if alive, after 72 hours of incubation. Light black dot: larva still alive after 72 hrs post-inoculation (HPI); Black dot: larvae dead before 72 HPI.
Effect of the selected four SMs on S. typhimurium intracellular survival in G. mellonella larvae: Wax moths were selected as mentioned previously in the toxicity assay section. First, the virulence of both Kan^R and WT S. typhimurium strains in G. mellonella was assessed. Briefly, a S. typhimurium suspension normalized at approximately 10^6 CFU/ml in 10 mM MgSO4 was used as the inoculum. […] Survival rate was monitored every 12 hrs. The bacterial quantification was performed once the larvae were considered dead (dark pigmentation or no reaction to a mechanical stimulus) or after the 72 hrs of incubation. […]

Structure (SMILES) | MIC/MBC [1] [µM] | MIC/MBC [2] [µM] | Effect on S. Typhimurium at 200 μM [3] | MIC/MBC [4] [µM] | MIC/MBC [5] [µM] | MIC/MBC [6] [µM] | MIC/MBC [7] [µM] | MIC/MBC [8] [µM] | MIC/MBC [9] [µM] | MIC/MBC [10] [µM] | resistance after repeated exposure at sub-lethal dose ([11]; 0.75×MIC in liquid medium, 15 passages at 37° C.) | resistance after single exposure at a lethal dose ([11]; 2×MIC in solid medium) | SM concentration at which resistant bacteria were able to grow ([11]; minimal growth condition, represents 4×MBC) [µM] | survival of infected larvae [12] [%]
CN(CCO)CC(O)Cn1c2ccc(Br)cc2c2cc(Br)ccc21 (centres unmarked) [SM2, 1-(3,6-dibromo-9H-carbazol-9-yl)-3-[(2-hydroxyethyl)(methyl)amino]-2-propanol] | 200 (≈ 91.2 µg/mL) | 100 (≈ 45.6 µg/mL) | Bactericidal | 200 (≈ 91.2 µg/mL) | 200 (≈ 91.2 µg/mL) | 200 (≈ 91.2 µg/mL) | 200 (≈ 91.2 µg/mL) | 200 (≈ 91.2 µg/mL) | 200 (≈ 91.2 µg/mL) | 200 (≈ 91.2 µg/mL) | developed resistance mechanisms | developed resistance mechanisms | 400 | 
O=C(N[C@H](CO)[C@H](O)c1ccc([N+](=O)[O-])cc1)C(Cl)Cl [chloramphenicol] |  |  |  |  |  |  |  |  |  |  |  |  |  | 100

— patent US12161630B2, “Methods to control infection using new generation small molecule growth inhibitors” (priority 2017, dated 2024)
